The source of these data is patent US20150290192A1, “INHIBITORS OF BRUTON'S TYROSINE KINASE” (HOFFMANN-LA ROCHE INC., priority 2012, published 2015).

Series [1] is described as follows: Pharmacokinetics in cynomolgus monkey. It is filed as in vivo. As to conditions: Cyno.
The nature of series [2]: Micronization: particle size and polymorphic form. It is filed as physicochemical. The procedure: 10.6 g of compound 1 was micronized in a Jet-O-Mizer jet mill at feed and grinding pressures of 90 psi. The micronized material thus obtained was analyzed by powder X-ray diffraction pattern and particle size distribution as shown in FIGS. 1 and 2 respectively. No change in polymorphic form was observed during the micronization process. Eighty percent of the particles were of size 5 μm or less with a mean particle size (d50%=2.88 μm) in the range suitable for inhalation delivery. The material was used for the in vivo experiment mOVA36.
8.6 g of 2-(6-tert-butyl-8-fluoro-1-oxophthalazin-2(1H)-yl)-4-(1-methyl-5-(5-(1-methylpiperidin-4-yl)pyridin-2-ylamino)-6-oxo-1,6-dihydropyridazin-3-yl)nicotinaldehyde was micronized in a Jet-O-Mizer jet mill at 80 psi. The mean particle size (d50%) was 3.05 μm with 90% particles ≦6 μm (FIG. 3). This material (30% w/w) and lactose (Lactohale LH 300, 70% w/w) were mixed in a Turbula mixer at 22 rpm for 15 minutes. The d50% and d90% particle size of the lactose ingredient were <5 μm and <10 μm, respectively (DFE Pharma specifications (#001/October 2011). The blend thus obtained was used for the in vivo experiment mOVA40, mPolylC-3-12 and mPolylC-5-12. See FIG. 3.

A further series can be described thus: Pharmacokinetics in dog. It is filed as in vivo.
Series [3] relates to human B cells (BCR activation). Nature of the series: Human B cell antibody production after BCR activation. It is filed as cell-based. As to conditions: for IC50: Homo sapiens, B-cell, N = 3 donors. On the procedure:
Human total B cells were enriched with RosetteSep human B cell enrichment cocktail (#28921, Vancouver, BC) from buffy coat leukocyte packs (New York Blood Center) following manufacturer's protocol. Enriched B cell purity (around 80%) was checked by FACS with CD19+ staining. B cells were suspended (0.1 million cells/well/100 μl) in RPMI-1640 based conditional medium (50 ng/ml IL-2, 50 ng/ml IL-10, and […] anti-IgD for the activation of B cells to produce IgG/IgM; 10 ng/ml IL-4, 10 ng/ml IL-10, 25 ng/ml IL-21, and […] anti-CD40 for the activation of B cells to produce IgE) together with Compound 1 (1 nM-10 μM). Cells were cultured for 10 days (for IgG/IgM production) or 14 days (for IgE production) at 37° C. Culture supernatants were collected for IgM, IgG, and IgE analysis following Bethyl Laboratory's protocol (#E80-104, #E80-100, #E80-108, Montgomery, Tex.).

Series [4] deals with human mast cells (FCεRI activation). Put plainly: Human mast cell activation, mediator release after FCεRI activation. It is filed as cell-based. To be noted: N = 3 donors. The procedure:
One million human cord blood derived CD34+ hematopoietic stem cells (HSCs) from different donors (AllCells #CB008F-S, Emeryville, Calif.) were cultured for eight weeks in a serum-free complete medium (StemPro-34 with supplements; Invitrogen, Carlsbad, Calif.), with recombinant h-SCF (100 ng/ml) and h-IL6 (50 ng/ml). During the first week of culturing, recombinant h-IL3 (10 ng/ml) was also included to support HSCs differentiation. After 8 weeks of culture, cells were stimulated with recombinant h-IL-4 (10 ng/ml) for 5 days. Confirmation of the mast cell differentiation process was routinely done by FACS to check for c-kit and FcsRI expression; differentiated cells were routinely more than 90% c-kit positive, FceRI positive. Differentiated mast cells were sensitized with […] anti-NP IgE (Serotec, Raleigh, N.C.) overnight at 37° C. Cells were washed and then treated with Compound 1 for 1 hour at 37° C. After treatment, cells were cross-linked with […] NP(30)-BSA (Biosearch Technologies, Novato Calif.) for 30 minutes (for histamine and lipid mediator assessment) or overnight (for cytokine assessment). Culture supernatants were collected and assayed for histamine (Oxford Biomedical Research, Rochester Hills, Mich.), PGD2 and LTC4 (Cayman Chemical Company, Ann Arbor Mich.), and IL-5 and IL-13 (Bio-Rad Bio-Plex Pro cytokine quantification kit) release as per kits' instructions. Compound 1, Compound 2 and Compound 3 reduced the release of these mediators into the supernatant in a concentration dependent manner up to 100% efficacy and the IC50 values are reported in Table 2.

Read-outs that look alike come from different tables or passages of the source. Some results are limits rather than exact numbers.

As usually defined, the bioavailability is dose-corrected exposure relative to a reference, in per cent. What is called clearance is the rate of elimination divided by the concentration. In general, IC50 refers to the midpoint of a concentration-inhibition curve. As for `CN1CCC(c2ccc(Nc3cc(-c4ccnc(-n5ncc6cc(C(C)(C)C)cc(F)c6c5=O)c4CO)nn(C)c3=O)nc2)CC1` [Compound 1, 6-tert-Butyl-8-fluoro-2-{3-hydroxymethyl-4-[1-methyl-5-(1′-methyl-1′,2′,3′,4′,5′,6′-hexahydro-[3,4′]bipyridinyl-6-ylamino)-6-oxo-1,6-dihydro-pyridazin-3-yl]-pyridin-2-yl}-2H-phthalazin-1-one], the CL entry (in series [1] (0.3 mg/kg (iv)); in the series “Pharmacokinetics in dog” (1.0 mg/kg (iv))) was “high” each time. The “Oral Bioavailability” value in series [1] (0.3 (iv), 0.9 (po) mg/kg) was “low”; in “Pharmacokinetics in dog” (1.0 (iv), 1.0 (po) mg/kg), “low”. Further, the bioavailability in series [1] (cynomolgus monkey, plasma, 0.9 mg/kg, 0.3 (iv), 0.9 (po) mg/kg) stood at 8%; in “Pharmacokinetics in dog” (plasma, 1 mg/kg, 1.0 (iv), 1.0 (po) mg/kg), 1.5%. Besides, the clearance in series [1] (cynomolgus monkey, plasma, 0.3 mg/kg (iv)) was 38.9 mL/min/kg; in “Pharmacokinetics in dog” (plasma, 1.0 mg/kg (iv)), 28.3 mL/min/kg. Further, the “particle size of 90% particles” value in series [2] (micronized at 80 psi, material for mOVA40 and mPolyIC) is recorded as ≤ 6 μm. In addition, in series [2] (micronized at 90 psi, material for mOVA36), the “particles of size 5 μm or less” value was “Eighty”. Further, the “mean particle size (d50%)” value was 3.05 μm in series [2] (micronized in Jet-O-Mizer jet mill at 80 psi, material for mOVA40 and mPolyIC); 2.88 μm in series [2] (micronized in Jet-O-Mizer jet mill at 90 psi, material for mOVA36). Further, the “change in polymorphic form during the micronization process” value in series [2] (powder X-ray diffraction before and after micronization) is “No change”. The IC50 is 4.15 nM in series [3] (240 h, 10 days culture, read-out: IC50 IgG production); 1.21 nM in series [3] (240 h, 10 days culture, read-out: IC50 IgM production); 1.47 nM in series [3] (336 h, 14 days culture, read-out: IC50 IgE production); 11.6 nM in series [4] (read-out: IC50 1L-13 release); 3.77 nM in series [4] (read-out: IC50 GM-CSF release); 14.7 nM in series [4] (read-out: IC50 Histamine release). The figures for the IC50 in series [4] (read-out: IC50 IL-5 release), in series [4] (read-out: IC50 LTC4 release) and in series [4] (read-out: IC50 PGD2 release) were 7.32 nM, 4.28 nM and 6.31 nM, respectively. The “reduction of levels of IgM, IgG, and IgE in the supernatant, efficacy” value in series [3] (concentration dependent) was “up to 100%”.
